Source: paper PMC6006164, “Natural cyclopeptide RA-V inhibits the NF-κB signaling pathway by targeting TAK1” (Cell Death & Disease, 2018)

Experiments:
HepG2 xenograft tumors = test: HepG2 xenograft in nude mice; type: in vivo, female athymic nude BALB/c mice
Description: Fig. 7 RA-V inhibits tumor growth and the expression of NF-κB target genes in a nude xenograft model. a–d Inhibition of the growth of HCT116 and HepG2 xenograft tumors by RA-V. Female athymic nude BALB/c mice bearing HCT116 (n = 8) or HepG2 (n = 7) xenograft tumors were intravenously injected with various concentrations of RA-V micelles or control micelles every other day. 5-FU (10 mg/kg) group as positive control. Effects of RA-V on the growth curves of subcutaneoue xenografts of HCT116 (a) and HepG2 (b) and effects on the tumor weight in the HCT116 (c) and HepG2 (d) models. e–f Tumors removed were photographed. g–h The expression of the NF-κB target genes, IL-8, MCP-1, and CXCL-1, in HCT116 (g) and HepG2 (h) tumor tissue from vehicle- and various concentrations of RA-V-treated group was determined by quantitative RT-PCR and normalized to GADPH expression. *, p < 0.05; **, p < 0.01; ***, p < 0.001
In total, 2 × 10^6 HCT116 or 3 × 10^6 HepG2 cells were subcutaneously injected into the right dorsal flank of 6- to 8-week-old female athymic nude BALB/c mice. After tumor volumes reached 100 mm^3, the tumor-bearing mice were randomly divided into several groups. The mice bearing HCT116 (n = 8) or HepG2 xenograft tumors (n = 7) were received the intravenous injection of vehicle micelles or various concentrations of RA-V micelles every other day. 5-FU (10 mg/kg) group as positive control. Body weights and tumor volumes were recorded every other day. Tumor volumes were calculated using the following formula: tumor volume (mm^3) = 0.52 × length × width^2. At the end of the experiments, the mice were killed. Tumor xenografts of each mouse were removed and weighed. Part of each tumor tissue was stored at liquid nitrogen for quantitative RT-PCR analysis. […] Serum alanine transaminase(ALT), aspartate transaminase(AST), and creatine kinase(CK) were determined using relevant kits (Nanjing Jiancheng) according to the manufacturer’s specific instructions.

TAK1–TAB2 interaction = biological target: T1, TAK1–TAB2 interaction (Homo sapiens, UniProt O43318); test: Co-immunoprecipitation of TAK1 and TAB2; type: cell-based; conditions: HEK293T, Flag-TAK1 and HA-TAB2; RA-V 6 h
T1 construct: expressed in transfected cells; host or cells: HEK293T
T1 sequence (O43318 1-579 isoform O43318-2): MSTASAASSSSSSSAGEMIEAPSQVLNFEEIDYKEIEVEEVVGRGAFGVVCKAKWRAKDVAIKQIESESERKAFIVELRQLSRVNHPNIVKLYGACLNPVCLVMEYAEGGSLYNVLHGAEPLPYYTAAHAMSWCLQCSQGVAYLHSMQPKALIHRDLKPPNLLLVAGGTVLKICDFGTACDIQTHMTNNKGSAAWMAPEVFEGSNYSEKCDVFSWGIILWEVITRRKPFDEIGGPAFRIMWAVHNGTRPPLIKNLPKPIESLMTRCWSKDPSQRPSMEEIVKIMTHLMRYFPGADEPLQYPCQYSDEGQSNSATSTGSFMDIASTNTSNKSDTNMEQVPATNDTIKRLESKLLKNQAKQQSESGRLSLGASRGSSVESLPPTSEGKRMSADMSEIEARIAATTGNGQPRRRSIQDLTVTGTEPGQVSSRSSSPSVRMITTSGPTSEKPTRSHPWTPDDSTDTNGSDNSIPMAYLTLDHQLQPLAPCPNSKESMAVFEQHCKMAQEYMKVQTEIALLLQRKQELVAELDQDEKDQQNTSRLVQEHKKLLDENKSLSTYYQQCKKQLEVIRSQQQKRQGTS
Description: Fig. 4 RA-V blocks the interaction between TAK1 and TAB2. a RA-V blocked the exogenous TAK1–TAB2 interaction. HEK293T cells were transfected with Flag-TAK1 and HA-TAB2 for 24 h and then incubated with various concentrations of RA-V for 6 h. […] HEK293T cells were transfected with Flag-TAK1 and HA-TRAF6 or HA-TAB1 for 24 h and then incubated with RA-V (800 nM) for 6 h. The cell lysates were immunoprecipitated with HA antibody, and immunoblots were performed with the indicated antibodies. d RA-V blocked the endogenous TAK1–TAB2 interaction. HEK293T (left) or RAW264.7 (right) cells were incubated with 800 nM RA-V for 6 h and stimulated with 10 ng/mL TNF-α for 2 h or 1 μg/mL LPS for 3 h, respectively. The cell lysates were immunoprecipitated with TAK1 antibody or control IgG and then immunoblotted with the indicated antibodies. Each experiment was repeated at least three times
The cell lysates were prepared using radioimmunoprecipitation (RIPA) buffer containing 50 mM Tris-HCl pH 7.4, 150 mM NaCl, 1 mM ethylenediaminetetraacetic acid, 1% Triton X-100, 0.5% deoxycholate, and 0.1% sodium dodecyl sulfate, to which protease inhibitors (Roche) were added. The lysates were incubated with the indicated antibodies before adding 20 μL of Protein A/G agarose for 2 h. After four washes with the same buffer, the immunoprecipitates were boiled in 2 × SDS loading buffer.

[1] = HepG2, n = 7, RA-V micelles i.v. every other day, vs control

RA-V was tested. Which “tumor growth rate (tumor volume)” value (HepG2 xenograft tumors; [1]) did it give?
The value was “significantly reduced”.

And the tumor weight (HepG2 xenograft tumors; [1])?
Its tumor weight is “obviously lower”.

And the “expression of IL-8, MCP-1, and CXCL-1 in tumor tissue” value (HepG2 xenograft tumors; HepG2 xenograft, quantitative RT-PCR)?
Its value is “remarkable decreased”.

And the “interaction between exogenously expressed TAK1 and TAB2” value (TAK1–TAB2 interaction)?
The value was “dose-dependently blocked”.
